# Results taken from paper PMC7179274, “6′-β-Fluoro-Homoaristeromycin and 6′-Fluoro-Homoneplanocin A Are Potent Inhibitors of Chikungunya Virus Replication through Their Direct Effect on Viral Nonstructural Protein 1” (Antimicrobial Agents and Chemotherapy, 2020).
# “Also recorded” adds a separate entry of the source. Like-named read-outs stand apart in the source and are kept apart here.
# Columns and labels:
# [1] = test system: CHIKV; assay: Viral load reduction (single-cycle dose response) assay, CHIKV
# [2] = test system: VeroE6 cells; assay: Cytotoxicity in uninfected cells (MTS/PMS) of the CPE reduction assay
# [3] = test system: SFV; assay: Viral load reduction (single-cycle dose response) assay, SFV; format: cell-based, Semliki Forest virus; settings: 12.5 μM, VeroE6, MOI 5, 8 hpi, plaque assay
# [4] = test system: SINV; assay: CPE reduction assay, SINV; settings: VeroE6 cells, MOI 0.025
# [5] = test system: CHIKV; assay: Time-of-drug-addition assay, CHIKV; settings: 10 μM, pretreated or treated early (−12 to 4 h)
# [6] = biological target: T1, wt SFV nsP1 (Semliki forest virus, UniProt P08411); assay: nsP1 enzymatic activity assay (m7GMP-nsP1 intermediate formation), wt; settings: for Inhibition of wt SFV nsP1: 10 μM SAM
# T1 sequence (P08411 1-537): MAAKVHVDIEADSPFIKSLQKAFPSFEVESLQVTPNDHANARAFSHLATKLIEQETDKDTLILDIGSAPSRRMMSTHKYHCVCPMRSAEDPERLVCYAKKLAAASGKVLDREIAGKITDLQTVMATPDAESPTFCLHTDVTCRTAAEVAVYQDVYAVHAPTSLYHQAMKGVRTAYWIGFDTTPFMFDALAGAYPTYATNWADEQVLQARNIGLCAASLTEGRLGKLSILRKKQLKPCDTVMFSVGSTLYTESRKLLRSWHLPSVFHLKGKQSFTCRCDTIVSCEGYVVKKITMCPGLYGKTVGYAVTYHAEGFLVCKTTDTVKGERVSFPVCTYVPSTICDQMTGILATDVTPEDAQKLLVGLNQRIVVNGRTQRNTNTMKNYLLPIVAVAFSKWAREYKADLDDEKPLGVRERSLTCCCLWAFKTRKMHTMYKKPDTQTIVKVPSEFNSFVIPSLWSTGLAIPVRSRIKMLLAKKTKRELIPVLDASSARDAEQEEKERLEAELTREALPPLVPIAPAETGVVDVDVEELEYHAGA
# [7] = test system: FHNA-resistant CHIKV variants; format: cell-based; settings: for Fold resistance: EC50 variant/EC50 wt; for EC50: read-out: Mean EC50 ± SD
# [8] = test system: SFV; assay: CPE reduction assay, SFV
# [9] = test system: rCHIKV G230R+K299E and rCHIKV G230R+K299E+*524R; format: cell-based, Chikungunya virus; settings: 10 μM, both mutant viruses, MOI 1
# [10] = biological target: host enzyme SAH hydrolase; set-up: method as in PMID 26010585; settings: in vitro; read-out: 50% inhibitory concentration, SAH hydrolase; cited from earlier work
# [11] = test system: CHIKV; assay: CPE reduction assay, CHIKV
# [12] = test system: rCHIKV mutants; assay: microbe, parasite or virus in culture; format: cell-based, Chikungunya virus; settings: for EC50: read-out: Mean EC50 ± SD
structure (smiles),measurement,setting,value
"Nc1ncnc2c1ncn2C1C(F)=C(CCO)C(O)C1O (stereo not shown) [FHNA, 6′-fluoro-homoneplanocin A]",Reduction of CHIKV infectious progeny titers vs infected untreated cells,"[1]; 5 μM, VeroE6, MOI 1, 20 hpi, plaque assay",2.5 log10
same,"Levels of genomic, subgenomic and negative-strand CHIKV RNA","[1]; 0.1 to 10 μM, 8 hpi, in-gel hybridization",reduced in a dose-dependent manner
same,CC50,"[2]; read-out: CC50 (CHIKV assay), CHIKV assay format",> 250 µM
same,CC50,"[2]; read-out: CC50 (SFV assay), SFV assay format",> 250 µM
same,CC50,"[2]; read-out: CC50 (SINV assay), SINV assay format",> 250 µM
same,Reduction of SFV infectious progeny,[3],> 1 log10
same,Protection against SINV infection,[4],did not confer protection; also recorded: not sensitive
same,CHIKV specific infectivity (genome copies vs infectious virus yield),[5],decrease in specific infectivity; also recorded: reduction in CHIKV-specific infectivity
same,Effect on formation of m7GMP-nsP1 intermediate,"[6]; 50 μM to 1 mM, 100 μM SAM, 5 mM DTT",did not observe any inhibitory effect
same,Inhibition of wt SFV nsP1,"[6]; 1 mM compound + 1 mM NAD+, absence of DTT",more than 50%
same,Effect on formation of m7GMP-nsP1 intermediate at low SAM,"[6]; 1 mM compound, 5 or 10 μM SAM",no direct inhibitory effect
same,Inhibition of wt SFV nsP1,"[6]; 1 mM, nonreducing conditions (absence of DTT)",more than 40%
same,Fold resistance,[7]; CHIKV wt,1
same,EC50,"[7]; CHIKV wt, VeroE6, MOI 0.05",0.14 ± 0.01 µM
same,Fold resistance,[7]; variant 1a,100
same,EC50,[7]; variant 1a,14.1 ± 0.01 µM
same,Fold resistance,[7]; variant 1b,24
same,EC50,[7]; variant 1b,3.4 ± 0.6 µM
same,Fold resistance,[7]; variant 2a,12
same,EC50,[7]; variant 2a,1.7 ± 0.7 µM
same,Fold resistance,[7]; variant 2b,21
same,EC50,[7]; variant 2b,3 ± 0.6 µM
same,Fold resistance,[7]; variant 3,9
same,EC50,[7]; variant 3,1.3 ± 0.8 µM
same,Fold resistance,[7]; variant 4,27
same,EC50,[7]; variant 4,3.8 ± 0.3 µM
same,Fold resistance,[7]; variant 5,13
same,EC50,[7]; variant 5,1.8 ± 0.8 µM
same,SI (SFV),[8]; CC50/EC50,>48
same,EC50,"[8]; read-out: EC50 (SFV), VeroE6 cells, MOI 0.025, MTS at 40 hpi, mean ± SD",5.2 ± 3.2 µM
same,Infectious progeny titers lower than untreated controls,[9]; 12 hpi,at least 1.5 log10
same,Infectious progeny titers lower than untreated controls,[9]; 24 hpi,≥ 1.2 log10
same,IC50,[10],0.91 µM
same,SI (CHIKV),[11]; CC50/EC50,">1,000"
same,EC50,"[11]; read-out: EC50 (CHIKV), VeroE6 cells, MOI 0.005, MTS at 96 hpi, mean ± SD",0.18 ± 0.11 µM
same,Fold resistance,"[12]; rCHIKV nsP1-G230R + nsP1-K299E + nsP3-*524R, EC50 mutant/EC50 wt",122
same,EC50,[12]; rCHIKV nsP1-G230R + nsP1-K299E + nsP3-*524R,25.6 ± 0.1 µM
same,Fold resistance,"[12]; rCHIKV nsP1-G230R + nsP1-K299E, EC50 mutant/EC50 wt",87
same,EC50,[12]; rCHIKV nsP1-G230R + nsP1-K299E,18.2 ± 4.2 µM
same,Fold resistance,"[12]; rCHIKV nsP1-G230R, EC50 mutant/EC50 wt",2
same,EC50,[12]; rCHIKV nsP1-G230R,0.5 ± 0.33 µM
same,Fold resistance,"[12]; rCHIKV nsP1-K299E, EC50 mutant/EC50 wt",2
same,EC50,[12]; rCHIKV nsP1-K299E,0.5 ± 0.08 µM
same,Fold resistance,"[12]; rCHIKV nsP1-L455P, EC50 mutant/EC50 wt",5
same,EC50,[12]; rCHIKV nsP1-L455P,1.1 ± 1.1 µM
same,Fold resistance,"[12]; rCHIKV nsP1-R171Q + nsP2-A511S + nsP3-H342Q, EC50 mutant/EC50 wt",49
same,EC50,[12]; rCHIKV nsP1-R171Q + nsP2-A511S + nsP3-H342Q,10.2 ± 2.6 µM
same,Fold resistance,"[12]; rCHIKV nsP1-R171Q + nsP2-A511S, EC50 mutant/EC50 wt",33
same,EC50,[12]; rCHIKV nsP1-R171Q + nsP2-A511S,6.9 ± 2.6 µM
same,Fold resistance,"[12]; rCHIKV nsP1-R171Q + nsP3-A137V, EC50 mutant/EC50 wt",18
same,EC50,[12]; rCHIKV nsP1-R171Q + nsP3-A137V,3.9 ± 1.3 µM
same,Fold resistance,"[12]; rCHIKV nsP1-R171Q, EC50 mutant/EC50 wt",3
same,EC50,[12]; rCHIKV nsP1-R171Q,0.58 ± 0.37 µM
same,Fold resistance,"[12]; rCHIKV nsP2-A511S + nsP3-H342Q, EC50 mutant/EC50 wt",1
same,Fold resistance,"[12]; rCHIKV nsP2-A511S, EC50 mutant/EC50 wt",9
same,EC50,[12]; rCHIKV nsP2-A511S,1.9 ± 0.6 µM
same,Fold resistance,"[12]; rCHIKV nsP2-T675A + nsP3-H342Q (H342Q reverted back to wt), EC50 mutant/EC50 wt",36
same,EC50,[12]; rCHIKV nsP2-T675A + nsP3-H342Q (H342Q reverted back to wt),7.6 ± 0.2 µM
same,Fold resistance,"[12]; rCHIKV nsP2-T675A + nsP3-H342Q + nsP3-*524R, EC50 mutant/EC50 wt",48
same,EC50,[12]; rCHIKV nsP2-T675A + nsP3-H342Q + nsP3-*524R,10.1 ± 6.8 µM
same,Fold resistance,"[12]; rCHIKV nsP2-T675A, EC50 mutant/EC50 wt",4
same,EC50,[12]; rCHIKV nsP2-T675A,0.8 ± 0.08 µM
same,Fold resistance,"[12]; rCHIKV nsP3-*524R, EC50 mutant/EC50 wt",40
same,EC50,[12]; rCHIKV nsP3-*524R,8.5 ± 2.3 µM
same,Fold resistance,"[12]; rCHIKV nsP3-G177R, EC50 mutant/EC50 wt",2
same,EC50,[12]; rCHIKV nsP3-G177R,0.51 ± 0.02 µM
same,Fold resistance,"[12]; rCHIKV nsP3-H342Q, EC50 mutant/EC50 wt",5
same,EC50,[12]; rCHIKV nsP3-H342Q,0.94 ± 0.01 µM
same,Fold resistance,"[12]; rCHIKV wt, EC50 recombinant mutant/EC50 wt",1
same,EC50,"[12]; rCHIKV wt, VeroE6, MOI 0.05",0.21 ± 0.07 µM
